Test results taken from article PMC5423611, “An activity-integrated strategy of the identification, screening and determination of potential neuraminidase inhibitors from Radix Scutellariae” (PLoS ONE, 2017).
In brackets after ≈: the same amount, converted by molar mass.

These compounds were tested against T1, neuraminidase (NA), neuraminidase inhibitors screen kit. Conditions: not given.
T1 construct: enzyme of a commercial Beyotime screening kit
Assay type: biochemical

SMILES	IC50 [µg/mL]
O=C(O)[C@H]1O[C@@H](Oc2cc3oc(-c4ccc(O)cc4)cc(=O)c3c(O)c2O)[C@H](O)[C@@H](O)[C@@H]1O [compound 5, scutellarin]	321.8 ± 62.8 (≈ 696 µM)

Same assay, conditions: 2'-(4-methylumbelliferyl)-alpha-D-N-acetylneuraminic acid substrate; 37 °C; 30 min

SMILES	IC50 [µg/mL]
COc1c(O[C@@H]2O[C@H](C(=O)O)[C@@H](O)[C@H](O)[C@H]2O)cc(O)c2c(=O)cc(-c3ccccc3)oc12 [compound 19, wogonoside]	428.3 ± 18.9 (≈ 930 µM)
O=C(O)[C@H]1O[C@@H](Oc2cc3oc(-c4ccccc4)cc(=O)c3c(O)c2O)[C@H](O)[C@@H](O)[C@@H]1O [compound 11, baicalin]	267.3 ± 37.8 (≈ 599 µM)
COc1c(O)cc(O)c2c(=O)cc(-c3ccccc3)oc12 [compound 23, wogonin]	331.1 ± 49.4 (≈ 1160 µM)
O=c1cc(-c2ccccc2)oc2cc(O)cc(O)c12 [compound 24, chrysin]	402.80 ± 67.8 (≈ 1580 µM)
O=c1cc(-c2ccccc2)oc2cc(O)c(O)c(O)c12 [compound 22, baicalein]	397.7 ± 9.91 (≈ 1470 µM)
COc1c(O)cc2oc(-c3ccccc3)cc(=O)c2c1O [compound 25, oroxylin A]	> 1000
O=C(O)[C@H]1O[C@@H](Oc2cc(O)c3c(=O)cc(-c4ccccc4)oc3c2)[C@H](O)[C@@H](O)[C@@H]1O [compound 15, chrysin-7-O-glucuronide]	493.6 ± 64.2 (≈ 1150 µM)
O=c1cc(-c2ccc(O)cc2)oc2cc(O)c(O)c(O)c12 [compound 10, scutellarein]	664.5 ± 26.2 (≈ 2320 µM)
